US20240130988A1, “Use of stilbene compounds in the preparation of anti-tumor drugs” (Guangzhou AnHao Pharmaceutical Technology CO., LTD., priority 2022, published 2024)

Test system: human lung cancer A549
Assay: Compound 8 combined with carboplatin, human lung cancer A549 xenograft in nude mice
Format: in vivo
Conditions: ip: carboplatin 10 mg/kg, compound 8 200 mg/kg, combination 10 + 200
Text: Experimental method: The model of human lung cancer A549 transplant tumor in nude mice was established by subcutaneously inoculating human lung cancer A549 cell lines into the armpits of nude mice. Cells were inoculated in an amount of 1×10^6, and after formation of the transplanted tumors by inoculation, the cells were passed 3 generations in nude mice before use. The vigorous growth of tumor tissue was cut into approximate 1.5 mm^3, and homogenized under sterile conditions, to prepare 1×10^7/mL of cell suspension. 0.1 mL of cell suspension was subcutaneously inoculated into the right armpit of nude mice. For transplanted tumors in nude mice, the diameter was measured with vernier caliper. After the tumor grew to 100 mm^3, the animals were randomly divided into groups, with 6 mice in each group. Using the method of measuring tumor diameter, the anti-tumor effect of test compound was dynamically Observed. Compound 8 was administered at 200 mg/kg by intraperitoneal injection, once every other day, for three weeks; carboplatin was administered at 10 mg/kg by intraperitoneal injection, once every other day, for three weeks. The measurement frequency of tumor diameter was once every three days. The dosage by volume was 0.1 mL/20 g. The mice in the negative control group were given an equal amount of physiological saline by intravenous injection. The effect of combined medicaments was evaluated based on the Q value calculated by Jin's formula: […]
Ea+b represents the tumor inhibitory rate of the combined medicaments, while Ea and Eb represent the tumor inhibitory rates of medicament A and medicament B, respectively. For example, the Q value of 0.85-1.15 means additive action (+), while the Q value of >1.15 means synergistic action (++).

COc1cc(/C(=C\c2cc(O)c(OC)c(F)c2)C(=O)O)cc(OC)c1OC [Compound 8, (E)-3-(5-fluoro-3-hydroxy-4-methoxyphenyl)-2-(3,4,5-trimethoxyphenyl)acrylic acid]
RTV (d 21): 4.85 ± 1.37 | Tumor inhibitory rate %: 62.32%
